Measured values taken from US20240158446A1, “CYCLIC COMPOUND HAVING SELECTIVE INHIBITORY ACTION ON KRAS OVER HRAS AND NRAS” (CHUGAI SEIYAKU KABUSHIKI KAISHA, priority 2021, published 2024).

Columns and labels:
[1] = target: GDP-bound KRAS wild-type protein (Homo sapiens, UniProt P01116); assay: Binding to KRAS by surface plasmon resonance (SPR), Single Cycle Kinetics; settings: SPR, Single Cycle Kinetics, 1:1 binding model; GDP-bound KRAS wild-type protein; read-out: KRAS KD
[2] = target: GDP-bound HRAS wild-type protein (Homo sapiens, UniProt P01112); assay: Binding to HRAS by surface plasmon resonance (SPR), Single Cycle Kinetics; settings: SPR; GDP-bound HRAS wild-type protein vs GDP-bound KRAS wild-type protein; KD ratio class
Sequence of GDP-bound HRAS wild-type protein (P01112 whole entry): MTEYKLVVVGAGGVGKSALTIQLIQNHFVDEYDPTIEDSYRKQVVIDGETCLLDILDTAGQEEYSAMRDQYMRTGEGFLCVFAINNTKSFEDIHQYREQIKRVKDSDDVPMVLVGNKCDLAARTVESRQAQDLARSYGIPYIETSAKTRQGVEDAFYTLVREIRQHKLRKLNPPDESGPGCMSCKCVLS

[3] = tested on: human lung cancer strain NCI-H441;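 further: cell proliferation inhibition after four days measured by CellTiter-Glo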
[4] = target: GDP-bound NRAS wild-type protein (Homo sapiens, UniProt P01111); assay: Binding to NRAS by surface plasmon resonance (SPR), Single Cycle Kinetics; settings: SPR; GDP-bound NRAS wild-type protein vs GDP-bound KRAS wild-type protein; KD ratio class
Sequence of GDP-bound NRAS wild-type protein (P01111 whole entry): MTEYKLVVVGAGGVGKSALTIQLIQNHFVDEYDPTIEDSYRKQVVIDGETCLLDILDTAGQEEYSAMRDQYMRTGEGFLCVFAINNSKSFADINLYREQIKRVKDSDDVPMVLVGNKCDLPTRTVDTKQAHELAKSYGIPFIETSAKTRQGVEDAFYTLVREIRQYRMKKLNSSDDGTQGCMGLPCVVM

Sequence of GDP-bound KRAS wild-type protein (P01116 whole entry): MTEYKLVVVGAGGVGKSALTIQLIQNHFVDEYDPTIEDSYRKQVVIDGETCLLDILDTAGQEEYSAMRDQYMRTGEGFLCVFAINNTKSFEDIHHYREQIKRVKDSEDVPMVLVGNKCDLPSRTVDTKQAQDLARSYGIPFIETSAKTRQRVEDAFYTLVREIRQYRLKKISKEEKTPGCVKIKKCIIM

## CCO[C@@H]1C[C@H]2C(=O)NC3(CCCC3)C(=O)N(C)[C@@H](C3CCCC3)C(=O)N(C)[C@H](C(=O)N(C)C)CC(=O)N(C)[C@@H](CC)C(=O)N[C@@H]([C@@H](C)CC)C(=O)N(C)CC(=O)N(C)[C@H]3C[C@@H](C)[C@@H](C)CN(C3=O)[C@@H](Cc3ccc(C(F)(F)F)cc3)C(=O)N(C)CC(=O)N[C@@H](CCc3ccc(C(F)(F)F)c(Cl)c3)C(=O)N2C1 [PP1358]
[1]
  Kd: 0.03 nM
[2]
  HRAS/KRAS (ratio of KD value for HRAS to KD value for KRAS): B (a compound having 3 or more and less than 10 is denoted as B)
[3]
  IC50: 4.1 nM
[4]
  NRAS/KRAS (ratio of KD value for NRAS to KD value for KRAS): A (a compound having 10 or more and less than 20 is denoted as A)

## CCO[C@@H]1C[C@H]2C(=O)NC3(CCCC3)C(=O)N(C)[C@@H](C3CCCC3)C(=O)N(C)[C@H](C(=O)N3CCOCC3)CC(=O)N(C)[C@@H](CC)C(=O)N[C@@H]([C@@H](C)CC)C(=O)N(C)CC(=O)N(C)[C@H]3C[C@@H](C)[C@@H](C)CN(C3=O)[C@@H](Cc3ccc(C(F)(F)F)cc3)C(=O)N(C)CC(=O)N[C@@H](CCc3ccc(C(F)(F)F)c(Cl)c3)C(=O)N2C1 [PP1359]
[1]
  Kd: 0.068 nM
[2]
  HRAS/KRAS (ratio of KD value for HRAS to KD value for KRAS): B (a compound having 3 or more and less than 10 is denoted as B)
[3]
  IC50: 3.2 nM
[4]
  NRAS/KRAS (ratio of KD value for NRAS to KD value for KRAS): A (a compound having 10 or more and less than 20 is denoted as A)

## CCO[C@@H]1C[C@H]2C(=O)NC3(CCC3)C(=O)N(C)[C@@H](C3CCCC3)C(=O)N(C)[C@H](C(=O)N3CCOCC3)CC(=O)N(C)[C@@H](CC)C(=O)N[C@@H]([C@@H](C)CC)C(=O)N(C)CC(=O)N(C)[C@H]3C[C@@H](C)[C@@H](C)CN(C3=O)[C@@H](Cc3ccc(C(F)(F)F)cc3)C(=O)N(C)CC(=O)N[C@@H](CCc3ccc(C(F)(F)F)c(Cl)c3)C(=O)N2C1 [PP1360]
[1]
  Kd: 0.055 nM
[2]
  HRAS/KRAS (ratio of KD value for HRAS to KD value for KRAS): B (a compound having 3 or more and less than 10 is denoted as B)
[3]
  IC50: 4.9 nM
[4]
  NRAS/KRAS (ratio of KD value for NRAS to KD value for KRAS): A (a compound having 10 or more and less than 20 is denoted as A)

## CCO[C@@H]1C[C@H]2C(=O)NC3(CCC3)C(=O)N(C)[C@@H](C3CCCC3)C(=O)N(C)[C@H](C(=O)N3CCOCC3)CC(=O)N(C)[C@@H](CC(C)C)C(=O)N[C@@H]([C@@H](C)CC)C(=O)N3CC[C@H]3C(=O)N(C)[C@H]3C[C@@H](C)[C@@H](C)CN(C3=O)[C@@H](Cc3ccc(C(F)(F)F)cc3)C(=O)N(C)CC(=O)N[C@@H](CCc3ccc(C(F)(F)F)c(Cl)c3)C(=O)N2C1 [PP1361]
[1]
  Kd: 0.15 nM
[2]
  HRAS/KRAS (ratio of KD value for HRAS to KD value for KRAS): B (a compound having 3 or more and less than 10 is denoted as B)
[3]
  IC50: 6.2 nM
[4]
  NRAS/KRAS (ratio of KD value for NRAS to KD value for KRAS): A (a compound having 10 or more and less than 20 is denoted as A)

## CCO[C@@H]1C[C@H]2C(=O)NC3(CCCC3)C(=O)N(C)[C@@H](C3CCCC3)C(=O)N(C)[C@H](C(=O)N(C)C)CC(=O)N(C)[C@@H](CC3CC3)C(=O)N[C@@H]([C@@H](C)CC)C(=O)N(C)CC(=O)N(C)[C@H]3C[C@@H](C)[C@@H](C)CN(C3=O)[C@@H](Cc3ccc(C(F)(F)F)cc3)C(=O)N(C)CC(=O)N[C@@H](CCc3ccc(C(F)(F)F)c(Cl)c3)C(=O)N2C1 [PP1362]
[1]
  Kd: 0.037 nM
[2]
  HRAS/KRAS (ratio of KD value for HRAS to KD value for KRAS): B (a compound having 3 or more and less than 10 is denoted as B)
[3]
  IC50: 3.7 nM
[4]
  NRAS/KRAS (ratio of KD value for NRAS to KD value for KRAS): A (a compound having 10 or more and less than 20 is denoted as A)

## CC[C@H](C)[C@@H]1NC(=O)[C@H](CC)N(C)C(=O)C[C@@H](C(=O)N2CCOCC2)N(C)C(=O)[C@H](C2CCCC2)N(C)C(=O)C2(CCC2)NC(=O)[C@@H]2CCCN2C(=O)[C@H](CCc2cc(F)c(C(F)(F)F)c(F)c2)NC(=O)CN(C)C(=O)[C@H](Cc2ccc(C(F)(F)F)cc2)N2C[C@H](C)[C@H](C)C[C@@H](C2=O)N(C)C(=O)[C@@H]2CCN2C1=O [PP1363]
[1]
  Kd: 0.32 nM
[2]
  HRAS/KRAS (ratio of KD value for HRAS to KD value for KRAS): B (a compound having 3 or more and less than 10 is denoted as B)
[3]
  IC50: 34.7 nM
[4]
  NRAS/KRAS (ratio of KD value for NRAS to KD value for KRAS): A (a compound having 10 or more and less than 20 is denoted as A)

## CC[C@H](C)[C@@H]1NC(=O)[C@H](CC)N(C)C(=O)C[C@@H](C(=O)N(C)C)N(C)C(=O)[C@H](C2CCCC2)N(C)C(=O)C2(CCCC2)NC(=O)[C@@H]2CCCN2C(=O)[C@H](CCc2cc(F)c(C(F)(F)F)c(F)c2)NC(=O)CN(C)C(=O)[C@H](Cc2ccc(C(F)(F)F)cc2)N2C[C@H](C)[C@H](C)C[C@@H](C2=O)N(C)C(=O)CN(C)C1=O [PP1364]
[1]
  Kd: 0.05 nM
[2]
  HRAS/KRAS (ratio of KD value for HRAS to KD value for KRAS): B (a compound having 3 or more and less than 10 is denoted as B)
[3]
  IC50: 7.1 nM
[4]
  NRAS/KRAS (ratio of KD value for NRAS to KD value for KRAS): A (a compound having 10 or more and less than 20 is denoted as A)

## CC[C@H](C)[C@@H]1NC(=O)[C@H](CC)N(C)C(=O)C[C@@H](C(=O)N2CCOCC2)N(C)C(=O)[C@H](C2CCCC2)N(C)C(=O)C2(CCCC2)NC(=O)[C@@H]2CCCN2C(=O)[C@H](CCc2cc(F)c(C(F)(F)F)c(F)c2)NC(=O)CN(C)C(=O)[C@H](Cc2ccc(C(F)(F)F)cc2)N2C[C@H](C)[C@H](C)C[C@@H](C2=O)N(C)C(=O)CN(C)C1=O [PP1365]
[1]
  Kd: 0.13 nM
[2]
  HRAS/KRAS (ratio of KD value for HRAS to KD value for KRAS): B (a compound having 3 or more and less than 10 is denoted as B)
[3]
  IC50: 4.2 nM
[4]
  NRAS/KRAS (ratio of KD value for NRAS to KD value for KRAS): A (a compound having 10 or more and less than 20 is denoted as A)

## CC[C@H](C)[C@@H]1NC(=O)[C@H](CC)N(C)C(=O)C[C@@H](C(=O)N2CCOCC2)N(C)C(=O)[C@H](C2CCCC2)N(C)C(=O)C2(CCC2)NC(=O)[C@@H]2CCCN2C(=O)[C@H](CCc2cc(F)c(C(F)(F)F)c(F)c2)NC(=O)CN(C)C(=O)[C@H](Cc2ccc(C(F)(F)F)cc2)N2C[C@H](C)[C@H](C)C[C@@H](C2=O)N(C)C(=O)CN(C)C1=O [PP1366]
[1]
  Kd: 0.11 nM
[2]
  HRAS/KRAS (ratio of KD value for HRAS to KD value for KRAS): B (a compound having 3 or more and less than 10 is denoted as B)
[3]
  IC50: 14 nM
[4]
  NRAS/KRAS (ratio of KD value for NRAS to KD value for KRAS): A (a compound having 10 or more and less than 20 is denoted as A)

## CC[C@H](C)[C@@H]1NC(=O)[C@H](CC(C)C)N(C)C(=O)C[C@@H](C(=O)N2CCOCC2)N(C)C(=O)[C@H](C2CCCC2)N(C)C(=O)C2(CCC2)NC(=O)[C@@H]2CCCN2C(=O)[C@H](CCc2cc(F)c(C(F)(F)F)c(F)c2)NC(=O)CN(C)C(=O)[C@H](Cc2ccc(C(F)(F)F)cc2)N2C[C@H](C)[C@H](C)C[C@@H](C2=O)N(C)C(=O)[C@@H]2CCN2C1=O [PP1367]
[1]
  Kd: 0.34 nM
[2]
  HRAS/KRAS (ratio of KD value for HRAS to KD value for KRAS): B (a compound having 3 or more and less than 10 is denoted as B)
[3]
  IC50: 29.3 nM
[4]
  NRAS/KRAS (ratio of KD value for NRAS to KD value for KRAS): A (a compound having 10 or more and less than 20 is denoted as A)

## CC[C@H](C)[C@@H]1NC(=O)[C@H](CC2CC2)N(C)C(=O)C[C@@H](C(=O)N(C)C)N(C)C(=O)[C@H](C2CCCC2)N(C)C(=O)C2(CCCC2)NC(=O)[C@@H]2CCCN2C(=O)[C@H](CCc2cc(F)c(C(F)(F)F)c(F)c2)NC(=O)CN(C)C(=O)[C@H](Cc2ccc(C(F)(F)F)cc2)N2C[C@H](C)[C@H](C)C[C@@H](C2=O)N(C)C(=O)CN(C)C1=O [PP1368]
[1]
  Kd: 0.061 nM
[2]
  HRAS/KRAS (ratio of KD value for HRAS to KD value for KRAS): B (a compound having 3 or more and less than 10 is denoted as B)
[3]
  IC50: 2.9 nM
[4]
  NRAS/KRAS (ratio of KD value for NRAS to KD value for KRAS): A (a compound having 10 or more and less than 20 is denoted as A)

## CCO[C@@H]1C[C@H]2C(=O)NC3(CCC3)C(=O)N(C)[C@@H](C3CCCC3)C(=O)N(C)[C@H](C(=O)N3CCOCC3)CC(=O)N(C)[C@@H](CC)C(=O)N[C@@H]([C@@H](C)CC)C(=O)N3CC[C@H]3C(=O)N(C)[C@H]3CC[C@@H](C)CN(C3=O)[C@@H](Cc3ccc(C(F)(F)F)cc3)C(=O)N(C)CC(=O)N[C@@H](CCc3cc(F)c(C(F)(F)F)c(F)c3)C(=O)N2C1 [PP1369]
[1]
  Kd: 0.26 nM
[2]
  HRAS/KRAS (ratio of KD value for HRAS to KD value for KRAS): B (a compound having 3 or more and less than 10 is denoted as B)
[3]
  IC50: 13.4 nM
[4]
  NRAS/KRAS (ratio of KD value for NRAS to KD value for KRAS): B (a compound having 3 or more and less than 10 is denoted as B)

## CCO[C@@H]1C[C@H]2C(=O)NC3(CCCC3)C(=O)N(C)[C@@H](C3CCCC3)C(=O)N(C)[C@H](C(=O)N(C)C)CC(=O)N(C)[C@@H](CC)C(=O)N[C@@H]([C@@H](C)CC)C(=O)N(C)CC(=O)N(C)[C@H]3CC[C@@H](C)CN(C3=O)[C@@H](Cc3ccc(C(F)(F)F)cc3)C(=O)N(C)CC(=O)N[C@@H](CCc3cc(F)c(C(F)(F)F)c(F)c3)C(=O)N2C1 [PP1370]
[1]
  Kd: 0.057 nM
[2]
  HRAS/KRAS (ratio of KD value for HRAS to KD value for KRAS): C (A compound having a KD ratio of 0.1 or more and less than 3 is denoted as C)
[3]
  IC50: 2.3 nM
[4]
  NRAS/KRAS (ratio of KD value for NRAS to KD value for KRAS): C (A compound having a KD ratio of 0.1 or more and less than 3 is denoted as C)

## CCO[C@@H]1C[C@H]2C(=O)NC3(CCCC3)C(=O)N(C)[C@@H](C3CCCC3)C(=O)N(C)[C@H](C(=O)N3CCOCC3)CC(=O)N(C)[C@@H](CC)C(=O)N[C@@H]([C@@H](C)CC)C(=O)N(C)CC(=O)N(C)[C@H]3CC[C@@H](C)CN(C3=O)[C@@H](Cc3ccc(C(F)(F)F)cc3)C(=O)N(C)CC(=O)N[C@@H](CCc3cc(F)c(C(F)(F)F)c(F)c3)C(=O)N2C1 [PP1371]
[1]
  Kd: 0.077 nM
[2]
  HRAS/KRAS (ratio of KD value for HRAS to KD value for KRAS): B (a compound having 3 or more and less than 10 is denoted as B)
[3]
  IC50: 5.1 nM
[4]
  NRAS/KRAS (ratio of KD value for NRAS to KD value for KRAS): A (a compound having 10 or more and less than 20 is denoted as A)
